Values after ≈ are worked out from the molar mass of the structure shown.
What was measured:
[1] = system: TREx™-mG2A-NFAT-bla Freestyle293F cells; assay: TREx-mG2A-NFAT-bla Freestyle293F (mouse G2A) doxycycline response; type: cell-based; settings: Homo sapiens, FreeStyle 293-F, 16 h
Method: TREx™-mG2A-NFAT-bla Freestyle293F cells were stimulated for 16 hours with doxycycline in the presence of 0.5% DMSO. Cells were then loaded with LiveBLAzer™-FRET B/G (CCF4-AM) for 2 hours. Fluorescence emission values at 460 nm and 530 nm are obtained using a standard florescence plate reader and the Blue/Green Emission ratios are plotted against the concentration of the stimulant.

[2] = system: T-REx™-GPR23-CRE-bla-CHO-K1 clone H6-E2; assay: T-REx-GPR23-CRE-bla-CHO-K1 clone H6-E2 beta-lactamase reporter assay (induction); type: cell-based, Chinese hamster; settings: for EC50: Cricetulus griseus
Method: Six clones selected for further testing were expanded and retested for their inducible GPR23 specific activity. The clones were plated at 25,000 cells per well in a 96 well black walled clear bottom tissue culture assay plate. The plates were than placed at 37° C. 5% CO2 for 24 hrs to allow the cells to attach to the assay plate. The complete media was then removed from the plate and replaced with assay media (DMEM+0.1% BSA) containing 100 ng/ml pertussis toxin with or without 1 μg/ml tetracycline. The plates were placed at 37° C. 5% CO2 for 16 hrs to allow the induced expression of the GPR23 receptor. The cells were then loaded with LiveBLAzer™-FRET B/G substrate (2 μM) containing solution D for 2 hrs. To determine the optimal cell density for this assay the cells were plated at 2,500, 5,000, 10,000, and 20,000 cells per well in a 384 well black walled clear bottom tissue culture assay plate in complete media (DMEM+10% FBS). The plates were than placed at 37° C. 5% CO2 for 24 hrs to allow the cells to attach to the assay plate. The complete media was then removed from the plate and replaced with assay media (DMEM+0.1% BSA) containing 100 ng/ml pertussis toxin and a four fold dilution series of doxycycline starting at 1 μg/ml. The plates were placed at 37° C./5% CO2 for 16 hrs to allow the induced expression of the GPR23 receptor. The cells were then loaded with LiveBLAzer™-FRET B/G substrate (2 μM) containing solution D for 2 hrs. The cells were plated at 20,000 cells per well in a 384 well black walled clear bottom tissue culture assay plate in complete media (DMEM+10% FBS). The plates were then placed at 37° C. 5% CO2 for 6 hrs to allow the cells to attach to the assay plate. The complete media was then removed from the plate and replaced with assay media (DMEM+0.1% BSA) containing 100 ng/ml pertussis toxin, 0%, 0.25%, 0.5%, or 1.0% DMSO, and a three fold dilution series of doxycycline starting at 1 μg/ml. The plates were placed at 37° C./5% CO2 for 16 hrs to allow the induced expression of the GPR23 receptor. The cells were then loaded with LiveBLAzer™-FRET B/G substrate (2 μM) containing solution D for 2 hrs. The cells were plated at 20,000 cells per well in a 384 well black walled clear bottom tissue culture assay plate in complete media (DMEM+10% FBS). The plates were than placed at 37° C. 5% CO2 for 6 hrs to allow the cells to attach to the assay plate. The complete media was then removed from the plate and replaced with assay media (DMEM+0.1% BSA) containing 100 ng/ml pertussis toxin, 0.5% DMSO, and a three fold dilution series of doxycycline starting at 1 μg/ml. The plates were placed at 37° C. 5% CO2 for 16, 20 or 24 hrs to allow the induced expression of the GPR23 receptor. The cells were then loaded with LiveBLAzer™-FRET B/G substrate (2 μM) containing solution D for 2 hrs. Dose response of T-REx-GPR23-CRE-bla CHO-K1 cells to Doxycycline. T-REx-GPR23-CRE-bla CHO-K1 cells were plated in Growth Media (+) and allowed to attach to the tissue culture plate for 6 hrs. They were then induced for GPR23 expression overnight with doxycycline for 16 hrs in Assay Media. Cells were then loaded with LiveBLAzer™-FRET B/G Substrate (CCF4-AM) for 2 hours. Fluorescence emission values at 460 nm and 530 nm were obtained using a standard florescence plate reader and the Blue/Green Emission Ratios were plotted against the indicated concentrations of doxycycline (FIG. 40).

For `C[C@H]1c2cccc(O)c2C(=O)C2=C(O)[C@]3(O)C(=O)C(C(N)=O)=C(O)[C@@H](N(C)C)[C@@H]3[C@@H](O)[C@@H]21` [Doxycycline], the EC50 ([1]; clone #2, 0.5% DMSO) was 0.386 ng/mL (≈ 0.869 nM), the EC50 ([1]; clone #25, 0.5% DMSO) was 1.12 ng/mL (≈ 2.52 nM) and the EC50 ([1]; clone #53, 0.5% DMSO) was 0.524 ng/mL (≈ 1.18 nM). For the same compound, the maximum response ratio ([2]; 20,000 cells per well) was 5.7 fold, the EC50 ([2]; 16 h, 0% DMSO, 20,000 cells per well) was 3.3 ng/mL and the EC50 ([2]; 16 h, 0.25% DMSO, 20,000 cells per well) was 4 ng/mL. It also gave an EC50 ([2]; 16 h, 0.5% DMSO, 20,000 cells per well) of 4 ng/mL, an EC50 ([2]; 16 h, 1.0% DMSO, 20,000 cells per well) of 5.1 ng/mL and an EC50 ([2]; 16 h, 2,500 cells/well, 16 hrs induction) of 1.3 ng/mL. It also gave an EC50 ([2]; 16 h, 5,000 cells/well, 16 hrs induction) of 1 ng/mL, an EC50 ([2]; 16 h, 10,000 cells/well, 16 hrs induction) of 1.6 ng/mL and an EC50 ([2]; 16 h, 20,000 cells/well, 16 hrs induction) of 2 ng/mL. The EC50 ([2]; 16 h, 16 hours induction, 0.5% DMSO) was 4 ng/mL, the EC50 ([2]; 20 h, 20 hours induction, 0.5% DMSO) was 1.9 ng/mL and the EC50 ([2]; 24 h, 24 hours induction, 0.5% DMSO) was 2 ng/mL. It also gave an EC50 ([2]; representative data, 16 hrs induction, 2 hours loading) of 1.7 nM.
